Test results taken from US6160020A, “Alkali metal and alkaline-earth metal salts of acetaminophen” (priority 1998, dated 2000).
In brackets after ≈: the same amount, converted by molar mass. Counter-ions that a name gives are not always drawn. Like-named read-outs stand apart in the source and are kept apart here.

How the values were obtained:
[1] = cited from earlier work
[2] = dissolution of APAP form (powder) in 0.1N hydrochloric acid, USP Dissolution Apparatus 2; format: physicochemical; settings: paddle 50 rpm, 37° C.
Experimental: In 0.1N hydrochloric acid using USP Dissolution Apparatus 2 (paddle speed: 50 rpm) at 37° C., the concentration of acetaminophen at 30 seconds was as follows: […]

[3] = aqueous solubility at 22° C.; format: physicochemical; settings: for solubility equivalent of APAP free acid: expressed as APAP free acid, approximately
Experimental: Accordingly, the sodium, lithium and calcium salts have solubilities equivalent to approximately 260-280, 250-270, and 10 mg/mL, respectively, of APAP free acid.

in vivo = experiment: in vivo; parameters: species or system dog (male purebred beagles); settings: dog, po
Experimental: A study was conducted in dogs to determine the bioavailability of acetaminophen sodium. The free acid form of acetaminophen was used as the control. Compressed cylindrical pellets having the following composition were prepared:
Acetaminophen Sodium--compressed neat (no excipients). Control--150 mg APAP, 30 mg microcrystalline cellulose, and 30 mg dextrates.
Eight male purebred beagles having a body weight at initial dosing of approximately 9 to 14 kg were used in the study. The dogs were fed PMI® Certified Canine Diet Meal No. 5007 and water, both ab libitum. The dogs were fasted overnight for approximately 12 hours prior to dosing and food was returned 4 hours after dosing.
The dogs were divided into two groups and each group was dosed with either acetaminophen sodium or the control (free acid APAP) pellets. A single dose equivalent to 300 mg of acetaminophen free acid was administered via an oral gavage using a stomach tube. Each dose was followed by 20 mL of water. After a period of one week, the each group was dosed again, but with the other form of acetaminophen. Twelve blood samples were collected form each dog on each dosing day (1 prior to dosing and 11 thereafter). The plasma was separated and tested for acetaminophen.

[4] = stability of anionic form of APAP in aqueous solution; format: physicochemical; settings: pH>11
Experimental: The lack of discussion on APAP salts in the scientific literature may be due in part to the fact that the anionic form of APAP is stable in aqueous solution (pH>11) for only a short period of time (<24 h). If the salt is not quickly isolated after formation, p-aminophenolate (PAP) can form and result in discoloration of the resulting product.

| concentration of acetaminophen at 30 seconds [2] | aqueous solubility [3] [mg/mL] | SMILES | other results |
| --- | --- | --- | --- |
| – | – | CC(=O)Nc1ccc(OC(=O)CN)cc1 [APG-HBr, p-acetamidophenyl glycinate] | water solubility, fold more soluble than acetaminophen ([1]; relative to acetaminophen): five |
| – | – | CC(=O)Nc1ccc(OC(=O)CC(N)C(=O)O)cc1 (stereo not drawn) [BAPA-HCl, β-p-acetamidophenyl aspartate] | water solubility, fold less soluble than APAP ([1]; relative to APAP): four |
| 0.20 Mg/mL of APAP | 13 | CC(=O)Nc1ccc(O)cc1 [Calcium Salt, acetaminophen calcium] | solubility equivalent of APAP free acid [3]: ~10 mg/mL |
| 0.02 Mg/mL of APAP | – | CC(=O)Nc1ccc(O)cc1 [Free Acid, acetaminophen] | – |
| – | 493 | CC(=O)Nc1ccc(O)cc1 [I, acetaminophen sodium (C8 H8 NO2 Na.6H2 O)] | – |
| – | 541 | CC(=O)Nc1ccc(O)cc1 [II, acetaminophen sodium (C8 H8 NO2 Na.7H2 O)] | – |
| – | 13 | CC(=O)Nc1ccc(O)cc1 [III, acetaminophen calcium (C16 H16 N2 O4 Ca.2H2 O)] | – |
| – | 455 (≈ 3010 mM) | CC(=O)Nc1ccc(O)cc1 [IV, acetaminophen lithium (C8 H8 NO2 Li.6H2 O)] | aqueous solubility ([3]; listed as Example V): 472 mg/mL (≈ 3120 mM) |
| 0.32 Mg/mL of APAP | – | CC(=O)Nc1ccc(O)cc1 [Lithium Salt, acetaminophen lithium] | solubility equivalent of APAP free acid [3]: 250 to 270 mg/mL |
| 0.30 Mg/mL of APAP | – | CC(=O)Nc1ccc(O)cc1 [Sodium Salt, acetaminophen sodium] | Tmax (in vivo): 16.2 ± 6 min; solubility equivalent of APAP free acid [3]: 260 to 280 mg/mL |
| – | – | CC(=O)Nc1ccc(O)cc1 [anionic form of APAP] | stability in aqueous solution [4]: < 24 h |
